Measured values: patent publication US20220087990A1, “APPLICATION OF RIFAMYCIN-QUINOLIZIDONE CONJUGATE MOLECULE AND PHARMACEUTICALLY ACCEPTABLE SALT THEREOF” (priority 2019, published 2022)
Read-outs that look alike come from different tables or passages of the source.

Tests used:
Assay type in all cases: in vivo, Staphylococcus aureus; Balb/c mice
[1] = tested on: Staphylococcus aureus CB1857 (parC^S80F+norA^up); experiment: Mouse subcutaneous catheter implant biofilm infection model
Experimental: (§1) Test Drug: rifamycin-quinolizidone conjugate molecule I was provided by TenNor Therapeutics, Ltd., and was stored at −20° C. Other test compounds and reagents are commercially available. […] For remaining test agents, aqueous vehicles of sterile water, 5% sodium bicarbonate or 0.9% normal saline were added to the compound shown in formula I. The rifamycin-quinolizidone conjugate molecule formulation shown in formula I was administered at 30 mg/kg.
(§2) Bacteria: The bacteria used were biofilm forming Staphylococcus aureus strains. These were a wild-type parent biofilm strain CB1406 and it's isogenic fluoroquinoline-resistant derivatives CB1823 (parC^S80F), CB1840 (norA^up) and CB1857 (parC^S80F30 norA^up). Minimal inhibit concentrations (MICs) were determined by broth microdilution assays recommended by CLSI.
(§3) Test animals: female 5-6 week old Balb/c mice were used in this embodiment. The mice had free access to food and water during the course of this test and animal procedures were compliant with UNTHSC Institutional Animal Care and Use Committee (IACUC) guidelines.
(§4) In vitro preparation of colonized implants: Teflon venous catheters (14-Guage AbboCath-T #271-1000 or Braun Introcan #425 2594) were cut into 1 cm segments, sterilized by soaking in 70% ethanol for 15 minutes, dried under UV light for 20 minutes followed by aseptic placement in sterile 1.5 mL polypropylene tubes warmed to 37° C. Inocula were prepared by growing overnight broth cultures, which were diluted in 1:10 in tryptic soy broth plus 0.25% glucose (TSBG) and incubated with 250 rpm at 37° C. for 1 hour. Cultures were diluted to 1.0E+0^6 CFU/mL in 37° C. TSBG, 1 mL was added to each catheter tube, incubated at 37° C. without shaking for an additional 2.5 hours, and then cooled to 18° C. to slow growth until implant surgeries were completed.
(§5) Formation and treatments of subcutaneous implant infections: the mice were anesthetized with isoflurane vapors (4 L/min). Each flank was shaved, sterilized with ethanol/betadine and two 3 mm incisions made. Subcutaneous pockets were excavated, then catheter segments pre-colonized with adherent bacteria inserted into the pockets closed with surgical staples. The mice were returned to their cages and regularly monitored for adverse reactions. Treatments were initiated one week post surgery (bacterial colonization and biofilm formation) twice daily by intraperitoneal injections (IP) for 7 days, 7 days treatment plus a 7 days rebound period with no treatment and 7 days treatment plus 7 days rebound+7 days re-treatment with 5 mice (total 10 implants) per treatment or sampling group. Implant-associated bacteria were monitored by sampling colonized catheter segments during the course of implant surgeries and at regular intervals for up to 28 days post infection.
(§6) Sampling of infected implants: infected mice were euthanized by CO2 inhalation, then flanks were sterilized with 70% ethanol, and the infected catheter segments were excised into 1 mL of phosphate buffered saline pH 7.2 (1×PBS). Bacteria that adhered to the internal surfaces of explanted catheter segments were mechanically disrupted (aseptically) by repeated draws/dispenses of 200 μL 1×PBS from a micropipette tip inserted into catheter lumens, followed by 5 min vortexing at high speed. Explanted samples were then snap frozen in dry ice/ethanol and stored at −80° C. until CFU counts were determined.
(§7) CFU count determination: the catheters were rapidly thawed in a 37° C. water bath, and vortexed for 2 minutes, serially diluted and spotted (8 μL) on agar plates. Viable cell counts for efficacy were determined by plating on drug free Charcoal or MHII agar plates. […] The detection limit for all CFU determinations was less than or equal to 2.09 log10 CFU/implant.
(§8) The counts were multiplied by the serial dilution factor. The resulting raw values were converted to log10 CFU for calculation of means and standard deviations.

[2] = tested on: quinolone-resistant Staphylococcus aureus CB1840 (norA^up); settings: I 30 mg/kg, rifampicin+levofloxacin 20+25 mg/kg
[3] = tested on: quinolone-resistant Staphylococcus aureus CB1823 (parC^S80F); settings: I 30 mg/kg, rifampicin+levofloxacin 20+25 mg/kg
[4] = tested on: quinolone-resistant Staphylococcus aureus CB1840 (norA^up); settings: for log10 CFU reduction in bacterial counts: rebound regimen
Experimental: as §1, §2, §3, §4, §5, §6, §7, §8

[5] = tested on: quinolone-resistant Staphylococcus aureus CB1823 (parC^S80F); settings: for log10 CFU reduction in bacterial counts: rebound regimen
Experimental: as §1, §2, §3, §4, §5, §6, §7, §8

[6] = tested on: S. aureus CB1406, CB1823, CB1840 and CB1857; settings: rebound dosing regimen, mean over strains
Experimental: as §1, §2, §3, §4, §5, §6, §7, §8

[7] = tested on: Staphylococcus aureus CB1406 (wild type); settings: for mean Log10 CFU/catheter / log10 CFU reduction in bacterial counts: CB1406; for log10 CFU reduction in bacterial counts: rebound regimen
Experimental: as §1, §2, §3, §4, §5, §6, §7, §8

[8] = 14-day treatment regimen, Day 7 (initiation of treatment)
[9] = rebound treatment regimen, Day 7 (initiation of treatment)
[10] = rebound treatment regimen, Day 14 (after 7 days of administration), IP bid, I 30 mg/kg, rifampicin+levofloxacin 20+25 mg/kg
[11] = rebound treatment regimen, Day 21 (7 days of rebound)
[12] = rebound treatment regimen, Day 28 (7 days of re-treatment)
[13] = 14-day treatment regimen, Day 21, IP bid
[14] = following additional 7 treatment days

CO[C@H]1/C=C/O[C@@]2(C)Oc3c(C)c(O)c4c(O)c(c(/C=N/N5CCC(N(C)C6([C@@H]7CCN(c8c(F)cn9c(=O)c(C(=O)O)cc(C%10CC%10)c9c8C)C7)CC6)CC5)c(O)c4c3C2=O)NC(=O)/C(C)=C\C=C\[C@H](C)[C@H](O)[C@@H](C)[C@@H](O)[C@@H](C)[C@H](OC(C)=O)[C@@H]1C [I]
mean Log10 CFU/catheter [1, 8]: 6.81 Log10 CFU/catheter
mean Log10 CFU/catheter ([1]; 14-day treatment regimen, Day 21, IP bid, I 30 mg/kg, rifampicin+levofloxacin 20+25 mg/kg): 2.30 Log10 CFU/catheter
log10 CFU reduction in bacterial counts at the catheter site ([1]; 14 consecutive days bid, I 30 mg/kg, rifampicin+levofloxacin 20+25 mg/kg): 4.5 log10 CFU
log10 CFU reduction in bacterial counts ([1]; rebound regimen, following 7 days of treatment): 2.5 log10 CFU
mean Log10 CFU/catheter [1, 9]: 6.81 Log10 CFU/catheter
mean Log10 CFU/catheter [1, 10]: 4.26 Log10 CFU/catheter
mean Log10 CFU/catheter [1, 11]: 2.40 Log10 CFU/catheter
mean Log10 CFU/catheter [1, 12]: 2.45 Log10 CFU/catheter
mean Log10 CFU/catheter [2, 13]: 2.10 Log10 CFU/catheter
log10 CFU reduction in bacterial counts at the catheter site ([2]; 14 consecutive days bid): 4.9 log10 CFU
mean Log10 CFU/catheter [3, 13]: 2.70 Log10 CFU/catheter
log reduction in bacterial counts at the catheter site ([3]; 14 consecutive days bid): 4.3 log
mean Log10 CFU/catheter [4, 8]: 7.01 Log10 CFU/catheter
log10 CFU reduction in bacterial counts ([4]; following 7 days of treatment): 2.4 log10 CFU
log10 CFU reduction in bacterial counts ([4]; following 7 days untreated): 4.9 log10 CFU
log10 CFU reduction in bacterial counts [4, 14]: 4.9 log10 CFU
mean Log10 CFU/catheter [4, 9]: 7.01 Log10 CFU/catheter
mean Log10 CFU/catheter [4, 10]: 4.61 Log10 CFU/catheter
mean Log10 CFU/catheter [4, 11]: 2.10 Log10 CFU/catheter
mean Log10 CFU/catheter [4, 12]: 2.10 Log10 CFU/catheter
mean Log10 CFU/catheter [5, 8]: 7.03 Log10 CFU/catheter
log10 CFU reduction in bacterial counts ([5]; following 7 days of treatment): 2.4 log10 CFU
log10 CFU reduction in bacterial counts ([5]; following 7 days untreated): 4.4 log10 CFU
log10 CFU reduction in bacterial counts [5, 14]: 4.5 log10 CFU
mean Log10 CFU/catheter [5, 9]: 7.03 Log10 CFU/catheter
mean Log10 CFU/catheter [5, 10]: 4.61 Log10 CFU/catheter
mean Log10 CFU/catheter [5, 11]: 2.61 Log10 CFU/catheter
mean Log10 CFU/catheter [5, 12]: 2.70 Log10 CFU/catheter
Mean Log10 CFU reduction ([6]; following 7 days of re-treatment): 4.6 Log10 CFU
Mean Log10 CFU reduction ([6]; following 7 days of treatment): 2.4 Log10 CFU
Mean Log10 CFU reduction ([6]; following 7 days untreated (rebound)): 4.6 Log10 CFU
mean Log10 CFU/catheter ([7]; 14-day treatment regimen, Day 7 (before treatment)): 6.82 Log10 CFU/catheter
log10 CFU reduction in bacterial counts ([7]; following 7 days of treatment): 2.1 log10 CFU
log10 CFU reduction in bacterial counts ([7]; following 7 days untreated): 4.6 log10 CFU
log10 CFU reduction in bacterial counts [7, 14]: 4.7 log10 CFU
mean Log10 CFU/catheter ([7]; rebound treatment regimen, Day 7 (before treatment)): 6.82 Log10 CFU/catheter
mean Log10 CFU/catheter [7, 11]: 2.20 Log10 CFU/catheter
mean Log10 CFU/catheter [7, 12]: 2.10 Log10 CFU/catheter
log reduction in bacterial colony counts at the catheter site ([7]; mouse, in vivo): 4.6 log
